Measured values: patent publication US9695123B2, “Microbiocides” (Syngenta Participations AG, priority 2013, dated 2017)

Tests used:
[1] = test system: Puccinia recondita f. Sp. Tritici; experiment: Puccinia recondita f. sp. tritici / wheat / leaf disc curative (brown rust); format: in vivo; conditions: foliar, 192 h, applied one day after inoculation, assessed 8 dpi, read-out: disease control
Experimental: Fungicidal Activity Against Puccinia recondita f. Sp. Tritici/Wheat/Leaf Disc Curative (Brown Rust) Wheat leaf segments are placed on agar in multiwell plates (24-well format). The leaf disks are then inoculated with a spore suspension of the fungus. One day after inoculation the test solution is applied. After appropriate incubation the activity of a compound is assessed 8 dpi (days after inoculation) as curative fungicidal activity. Dose range: 200-22 ppm.

[2] = test system: Fusarium culmorum; experiment: Fusarium culmorum / liquid culture (root rot); format: cell-based; conditions: liquid culture (PDB), inhibition of growth photometrically after 48 hrs, read-out: disease control
Experimental: Fungicidal Activity Against Fusarium culmorum/Liquid Culture (Root Rot)
Conidia of the fungus from cryogenic storage were directly mixed into nutrient broth (PDB potato dextrose broth). After placing a (DMSO) solution of the test compounds into a microtiter plate (96-well format) the nutrient broth containing the fungal spores was added. The test plates were incubated at 24 C and the inhibition of growth was determined photometrically after 48 hrs.

[3] = test system: Mycosphaerella arachidis (Cercospora arachidicola); experiment: Mycosphaerella arachidis (Cercospora arachidicola) / liquid culture (early leaf spot); format: cell-based; conditions: 96 h, liquid culture (PDB), inhibition of growth photometrically 4-5 days after application, read-out: disease control
Experimental: (§1) Fungicidal Activity Against Mycosphaerella arachidis (Cercospora arachidicola)/Liquid Culture (Early Leaf Spot) Conidia of the fungus from cryogenic storage were directly mixed into nutrient broth (PDB potato dextrose broth). After placing a (DMSO) solution of test compound into a microtiter plate (96-well format), the nutrient broth containing the fungal spores was added. The test plates were incubated at 24° C. and the inhibition of growth was determined photometrically 4-5 days after application.

[4] = test system: Puccinia recondite f. Sp. Tritici; experiment: Puccinia recondita f. sp. tritici / wheat / leaf disc preventative (brown rust); format: in vivo; conditions: foliar, wheat leaf disc cv. Kanzler, inoculated 1 day after application, assessed 7-9 days after application, read-out: disease control
Experimental: Fungicidal Activity Against Puccinia recondite f. Sp. Tritici/Wheat/Leaf Disc Preventative (Brown Rust) Wheat leaf segments cv. Kanzler were placed on agar in multiwell plates (24-well format) and sprayed with the formulated test compound diluted in water. The leaf disks were inoculated with a spore suspension of the fungus 1 day after application. The inoculated leaf segments were incubated at 19° C. and 75% rh under a light regime of 12 h light/12 h darkness in a climate cabinet and the activity of a compound was assessed as percent disease control compared to untreated when an appropriate level of disease damage appears in untreated check leaf segments (7-9 days after application).

[5] = test system: Mycosphaerella graminicola (Septoria tritici); experiment: Mycosphaerella graminicola (Septoria tritici) / liquid culture (Septoria blotch); format: cell-based; conditions: Zymoseptoria tritici, 96 h, liquid culture (PDB), inhibition of growth photometrically 4-5 days after application, read-out: disease control
Experimental: as §1, with “graminicola (Septoria tritici)/Liquid” for “arachidis (Cercospora arachidicola)/Liquid”, “(Septoria Blotch)” for “(Early Leaf Spot)”

[6] = test system: Blumeria graminis f. Sp. Tritici (Erysiphe graminis f. Sp. Tritici); experiment: Blumeria graminis f. sp. tritici / wheat / leaf disc preventative (powdery mildew on wheat); format: in vivo; conditions: foliar, wheat leaf disc cv. Kanzler, inoculated 1 day after application, assessed 6-8 days after application, read-out: disease control
Experimental: Fungicidal Activity Against Blumeria graminis f. Sp. Tritici (Erysiphe graminis f. Sp. Tritici)/Wheat/Leaf Disc Preventative (Powdery Mildew on Wheat)
Wheat leaf segments cv. Kanzler were placed on agar in a multiwell plate (24-well format) and sprayed with the formulated test compound diluted in water. The leaf disks were inoculated by shaking powdery mildew infected plants above the test plates 1 day after application. The inoculated leaf disks were incubated at 20° C. and 60% rh under a light regime of 24 h darkness followed by 12 h light/12 h darkness in a climate chamber and the activity of a compound was assessed as percent disease control compared to untreated when an appropriate level of disease damage appears on untreated check leaf segments (6-8 days after application).

[7] = test system: Gaeumannomyces graminis; experiment: Gaeumannomyces graminis / liquid culture (take-all of cereals); format: cell-based; conditions: 96 h, liquid culture (PDB), inhibition of growth photometrically 4-5 days after application, read-out: disease control
Experimental: as §1, with “Against Gaeumannomyces graminis/Liquid” for “Against Mycosphaerella arachidis (Cercospora arachidicola)/Liquid”, “Culture (Take-all of Cereals) Mycelial fragments” for “Culture (Early Leaf Spot) Conidia”, “spores is” for “spores was”

[8] = test system: Botryotinia fuckeliana (Botrytis cinerea); experiment: Botryotinia fuckeliana (Botrytis cinerea) / liquid culture (gray mould); format: cell-based; conditions: 72 h, liquid culture (Vogels broth), inhibition of growth photometrically 3-4 days after application, read-out: disease control
Experimental: as §1, with “Botryotinia fuckeliana (Botrytis cinerea)/Liquid” for “Mycosphaerella arachidis (Cercospora arachidicola)/Liquid”, “(Gray Mould)” for “(Early Leaf Spot)”, “(Vogels” for “(PDB potato dextrose”, “3-4” for “4-5”

Row | SMILES | pest or weed control at 200 ppm [1] [%] | inhibition of growth at 200 ppm [2] [%] | inhibition of growth at 200 ppm [3] [%] | pest or weed control at 200 ppm [4] [%] | inhibition of growth at 200 ppm [5] [%] | pest or weed control at 200 ppm [6] [%] | inhibition of growth at 200 ppm [7] [%] | inhibition of growth at 200 ppm [8] [%] | melting point [°C]
1 | OC(Cn1cncn1)(c1ccc(C#CC2CC2)cc1)C(F)(F)c1ccccn1 (centres unmarked) [Compound 7] | ≥ 80 | ≥ 80 | ≥ 80 | ≥ 80 | ≥ 80 | ≥ 80 | ≥ 80 | ≥ 80 | 
2 | N#CC(Cc1cccnc1)c1ccc(C#CC2CC2)cc1F (centres unmarked) [Compound 10] | ≥ 80 | ≥ 80 | ≥ 80 | ≥ 80 | ≥ 80 | ≥ 80 | ≥ 80 | ≥ 80 | 
3 | N#CC(Cc1cccnc1)c1ccc(C#CC2CC2)cc1 (centres unmarked) [Compound 1] | ≥ 80 | ≥ 80 | ≥ 80 |  | ≥ 80 | ≥ 80 | ≥ 80 | ≥ 80 | 
4 | N#CC(Cc1cncnc1)c1ccc(C#CC2CC2)cc1 (centres unmarked) [Compound 2] | ≥ 80 | ≥ 80 | ≥ 80 | ≥ 80 | ≥ 80 | ≥ 80 | ≥ 80 |  | 
5 | OC(Cn1cncn1)(c1ccc(C#CC2CC2)cc1)C(F)(F)c1ccc(Cl)cn1 (centres unmarked) [Compound 13] | ≥ 80 | ≥ 80 | ≥ 80 | ≥ 80 | ≥ 80 | ≥ 80 |  | ≥ 80 | 88 to 94
6 | Cc1cncc(CC(C#N)c2ccc(C#CC3CC3)cc2)c1 (centres unmarked) [Compound 3] |  | ≥ 80 | ≥ 80 |  | ≥ 80 | ≥ 80 | ≥ 80 | ≥ 80 | 
7 | OC(Cn1ccnc1)c1ccc(C#CC2CC2)cc1Cl (centres unmarked) [Compound 5] | ≥ 80 |  | ≥ 80 | ≥ 80 |  | ≥ 80 |  | ≥ 80 | 
8 | CC(C)C#Cc1ccc(C(O)(Cn2cncn2)C(F)(F)c2ccc(Cl)cn2)cc1 (centres unmarked) [Compound 11] | ≥ 80 | ≥ 80 | ≥ 80 | ≥ 80 | ≥ 80 | ≥ 80 | ≥ 80 | ≥ 80 | 128 to 132
9 | OC(Cn1ccnc1)(c1ccc(C#CC2CC2)cc1)C(F)(F)c1ccccn1 (centres unmarked) [Compound 6] | ≥ 80 |  | ≥ 80 | ≥ 80 | ≥ 80 | ≥ 80 | ≥ 80 | ≥ 80 | 
10 | CCCC#Cc1ccc(C(O)(Cn2cncn2)C(F)(F)c2ccc(Cl)cn2)cc1 (centres unmarked) [Compound 12] | ≥ 80 | ≥ 80 | ≥ 80 | ≥ 80 | ≥ 80 | ≥ 80 | ≥ 80 | ≥ 80 | 124 to 128
